Data published in patent US9981976B2, “Piperidine substituted pyrazolo[1,5-A]pyrimidine derivatives with inhibitory activity on the replication of the respiratory syncytial virus (RSV)” (priority 2014, dated 2018).

Key:
rgRSV224 virus = assay: microbe, parasite or virus in culture; assay type: cell-based, respiratory syncytial virus (RSV); conditions: for EC50: human respiratory syncytial virus, HeLa, 72 h, read-out: RSV HELA pEC50, rgRSV224 virus (MOI=1), HeLa cells, GFP expression three days post-virus exposure (converted)
HeLa cells = assay: Cytotoxicity in HeLa cells, ATP content (ATPlite kit); conditions: three days incubation, CC50 = 50% concentration for cytotoxicity
Procedure: Black 384-well clear-bottom microtiter plates (Corning, Amsterdam, The Netherlands) were filled via acoustic drop ejection using the echo liquid handler (Labcyte, Sunnyvale, Calif.). 200 nL of compound stock solutions (100% DMSO) were transferred to the assay plates. 9 serial 4-fold dilutions of compound were made, creating per quadrant the same compound concentration. The assay was initiated by adding 10 μL of culture medium to each well (RPMI medium without phenol red, 10% FBS-heat inactivated, 0.04% gentamycin (50 mg/mL). All addition steps are done by using a multidrop dispenser (Thermo Scientific, Erembodegem, Belgium). Next, rgRSV224 virus (MOI=1) diluted in culture medium was added to the plates. rgRSV224 virus is an engineered virus that includes an additional GFP gene (Hallak L K, Spillmann D, Collins P L, Peeples M E. Glycosaminoglycan sulfation requirements for respiratory syncytial virus infection; Journal of virology (2000), 74(22), 10508-13) and was in-licensed from the NIH (Bethesda, Md., USA). Finally, 20 μL of a HeLa cell suspension (3,000 cells/well) were plated. Medium, virus- and mock-infected controls were included in each test. The wells contain 0.05% DMSO per volume. Cells were incubated at 37° C. in a 5% CO2 atmosphere. Three days post-virus exposure, viral replication was quantified by measuring GFP expression in the cells by an in house developed MSM laser microscope (Tibotec, Beerse, Belgium). The EC50 was defined as the 50% inhibitory concentration for GFP expression. In parallel, compounds were incubated for three days in a set of white 384-well microtiter plates (Corning) and the cytotoxicity of compounds in HeLa cells was determined by measuring the ATP content of the cells using the ATPlite kit (Perkin Elmer, Zaventem, Belgium) according to the manufacturer's instructions. The CC50 was defined as the 50% concentration for cytotoxicity.

Structure (SMILES) | EC50 (rgRSV224 virus) | SI TOX HELA (HeLa cells) | RSV HELA pEC50 (rgRSV224 virus; rgRSV224 virus (MOI=1), HeLa cells, GFP expression three days post-virus exposure)
Cc1ccc2nc(NS(C)(=O)=O)nc(N3CCCC[C@@H]3c3cc4nc(N5CCC5)cc(N5CCOCC5)n4n3)c2c1 [P7, (R)—N-(4-(2-(5-(azetidin-1-yl)-7-morpholinopyrazolo[1,5-a]pyrimidin-2-yl)-piperidin-1-yl)-6-methylquinazolin-2-yl)methanesulfonamide] | 2 µM | <4 | 
Cc1ccc2ncnc(N3CCCC[C@H]3c3cc4nc(N5CCC(N)C5)ccn4n3)c2c1 (stereo in doubt) [P51, (S)-1-(2-((S)-1-(6-methylquinazolin-4-yl)piperidin-2-yl)pyrazolo-[1,5-a]pyrimidin-5-yl)pyrrolidin-3-amine] | 0.316 µM | 4.3 | 
CCOc1nc(N2CCCCC2c2cc3nc(N4CCC4)cc(N4CCOCC4)n3n2)c2c(C)cccc2n1 (centres unmarked) [P31, 4-(5-(azetidin-1-yl)-2-(1-(2-ethoxy-5-methylquinazolin-4-yl)piperidin-2-yl)pyrazolo[1,5-a]pyrimidin-7-yl)morpholine] | 0.158 µM | 4.8 | 
COCCOC(=O)Nc1nc(N2CCCCC2c2cc3nc(N4CCC4)cc(N4CCOCC4)n3n2)c2cc(N3CCOCC3)ccc2n1 (centres unmarked) [P14, 2-methoxyethyl 4-(2-(5-(azetidin-1-yl)-7-morpholinopyrazolo[1,5-a]-pyrimidin-2-yl)piperidin-1-yl)-6-morpholinoquinazolin-2-ylcarbamate] | 0.794 µM | <4 | 
CCOc1nc(N2CCCCC2c2cc3nc(N4CCC4)cc(N4CCOCC4)n3n2)c2cccnc2n1 (centres unmarked) [P16, 4-(5-(azetidin-1-yl)-2-(1-(2-ethoxypyrido[2,3-d]pyrimidin-4-yl)-piperidin-2-yl)pyrazolo[1,5-a]pyrimidin-7-yl)morpholine] | 0.0794 µM | 4.3 | 
Cc1cn2nc(C3CCCCN3c3ncnc4cccc(C)c34)cc2nc1N1CC(N)C1 (centres unmarked) [P26, 1-(6-methyl-2-(1-(5-methylquinazolin-4-yl)piperidin-2-yl)pyrazolo-[1,5-a]pyrimidin-5-yl)azetidin-3-amine] | 0.0251 µM | 4.3 | 
CN(C)S(=O)(=O)NC(=O)c1nc(N2CCCCC2c2cc3nc(N4CCC4)cc(N4CCOCC4)n3n2)c2ccccc2n1 (centres unmarked) [P36, 4-(2-(5-(azetidin-1-yl)-7-morpholinopyrazolo[1,5-a]pyrimidin-2-yl)-piperidin-1-yl)-N—(N,N-dimethylsulfamoyl)quinazoline-2-carboxamide] | 0.501 µM | <4 | 
Clc1ccc2ncnc(N3CCCC[C@@H]3c3cc4nc(N5CCC5)cc(N5CCOCC5)n4n3)c2c1 [P3, (R)-4-(5-(azetidin-1-yl)-2-(1-(6-chloroquinazolin-4-yl)piperidin-2-yl)pyrazolo[1,5-a]pyrimidin-7-yl)morpholine] | 3.98 µM | 4.6 | 
Cc1ccc2nc(NS(C)(=O)=O)nc(N3CCCC[C@H]3c3cc4nc(N5CCC5)cc(N5CCOCC5)n4n3)c2c1 [P8, (S)—N-(4-(2-(5-(azetidin-1-yl)-7-morpholinopyrazolo[1,5-a]pyrimidin-2-yl)piperidin-1-yl)-6-methylquinazolin-2-yl)methanesulfonamide] | 0.00794 µM | <4 | 
CS(=O)(=O)Nc1nc(N2CCCCC2c2cc3nc(N4CCC4)cc(N4CCOCC4)n3n2)c2ccccc2n1 (centres unmarked) [P10, N-(4-(2-(5-(azetidin-1-yl)-7-morpholinopyrazolo[1,5-a]pyrimidin-2-yl)piperidin-1-yl)quinazolin-2-yl)methanesulfonamide] | 0.631 µM | <4.3 | 
Cc1nc(N2CCCCC2c2cc3nc(N4CCC4)cc(N4CCOCC4)n3n2)c2cc[nH]c2n1 (centres unmarked) [P15, 4-(5-(azetidin-1-yl)-2-(1-(2-methyl-7H-pyrrolo[2,3-d]pyrimidin-4-yl)-piperidin-2-yl)pyrazolo[1,5-a]pyrimidin-7-yl)morpholine] | 0.251 µM | 4.0 | 
CS(=O)(=O)Nc1nc(N2CCCC[C@@H]2c2cc3nc(N4CCC4)cc(N4CCOCC4)n3n2)c2cc(Cl)ccc2n1 [P34, (R)—N-(4-(2-(5-(azetidin-1-yl)-7-morpholinopyrazolo[1,5-a]-pyrimidin-2-yl)piperidin-1-yl)-6-chloroquinazolin-2-yl)methanesulfonamide] | 0.631 µM | 4.3 | 
Cc1ccc2nc(Cl)nc(N3CCCCC3c3cc4nc(N5CCC5)cc(N5CCOCC5)n4n3)c2c1 (centres unmarked) [P5, 4-(5-(azetidin-1-yl)-2-(1-(2-chloro-6-methylquinazolin-4-yl)piperidin-2-yl)pyrazolo[1,5-a]pyrimidin-7-yl)morpholine] | 0.251 µM | <5 | 
Cc1cn2nc(C3CCCCN3c3ncnc4cccc(C)c34)cc2nc1N1CC[C@@H](N)C1 (stereo in doubt) [P48, (3 S)-1-(6-methyl-2-(1-(5-methylquinazolin-4-yl)piperidin-2-yl)-pyrazolo[1,5-a]pyrimidin-5-yl)pyrrolidin-3-amine] | 0.0126 µM | 4.5 | 
CSc1nc(N2CCCCC2c2cc3nc(N4CCC4)cc(N4CCOCC4)n3n2)c2cc(C)ccc2n1 (centres unmarked) [P57, 4-(5-(azetidin-1-yl)-2-(1-(6-methyl-2-(methylthio)quinazolin-4-yl)-piperidin-2-yl)pyrazolo[1,5-a]pyrimidin-7-yl)morpholine] | 0.631 µM | 4.5 | 
FC(F)(F)c1cccc2ncnc(N3CCCCC3c3cc4nc(N5CCC5)cc(N5CCOCC5)n4n3)c12 (centres unmarked) [P62, 4-(5-(azetidin-1-yl)-2-(1-(5-(trifluoromethyl)quinazolin-4-yl)piperidin-2-yl)pyrazolo[1,5-a]pyrimidin-7-yl)morpholine] | 0.1 µM | 4.3 | 
Fc1cccc2ncnc(N3CCCCC3c3cc4nc(N5CCC5)cc(N5CCOCC5)n4n3)c12 (centres unmarked) [P60, 4-(5-(azetidin-1-yl)-2-(1-(5-fluoroquinazolin-4-yl)piperidin-2-yl)-pyrazolo[1,5-a]pyrimidin-7-yl)morpholine] | 0.126 µM | 4.3 | 
Cc1cccc2nc(O)nc(N3CCCCC3c3cc4nc(N5CCC5)cc(N5CCOCC5)n4n3)c12 (centres unmarked) [P45, 4-(2-(5-(azetidin-1-yl)-7-morpholinopyrazolo[1,5-a]pyrimidin-2-yl)-piperidin-1-yl)-5-methylquinazolin-2-ol] | 0.2 µM | 4.2 | 
COc1cccc2ncnc(N3CCCCC3c3cc4nc(N5CCC5)cc(N5CCOCC5)n4n3)c12 (centres unmarked) [P74, 4-(5-(azetidin-1-yl)-2-(1-(5-methoxyquinazolin-4-yl)piperidin-2-yl)-pyrazolo[1,5-a]pyrimidin-7-yl)morpholine] | 0.0158 µM | <4.6 | 
Cc1cccc2nc(C(=N)NO)nc(N3CCCCC3c3cc4nc(N5CCC5)cc(N5CCOCC5)n4n3)c12 (centres unmarked) [P30, 4-(2-(5-(azetidin-1-yl)-7-morpholinopyrazolo[1,5-a]pyrimidin-2-yl)-piperidin-1-yl)-N-hydroxy-5-methylquinazoline-2-carboximidamide] | 0.631 µM | 4.6 | 
Cc1cccc2nc(C(=O)NS(=O)(=O)C3CC3)nc(N3CCCCC3c3cc4nc(N5CCC5)cc(N5CCOCC5)n4n3)c12 (centres unmarked) [P71, 4-(2-(5-(azetidin-1-yl)-7-morpholinopyrazolo[1,5-a]pyrimidin-2-yl)-piperidin-1-yl)-N-(cyclopropylsulfonyl)-5-methylquinazoline-2-carboxamide] | 0.398 µM | <4 | 
CS(=O)(=O)Nc1nc(N2CCCC[C@H]2c2cc3nc(N4CCC4)cc(N4CCOCC4)n3n2)c2cc(Cl)ccc2n1 (stereo in doubt) [P32, N-(4-(2-(5-(azetidin-1-yl)-7-morpholinopyrazolo[1,5-a]pyrimidin-2-yl)piperidin-1-yl)-6-chloroquinazolin-2-yl)methanesulfonamide] |  | <4 | 7.3
Cc1cccc2nc(C(=O)O)nc(N3CCCCC3c3cc4nc(N5CCC5)cc(N5CCOCC5)n4n3)c12 (centres unmarked) [P68, 4-(2-(5-(azetidin-1-yl)-7-morpholinopyrazolo[1,5-a]pyrimidin-2-yl)-piperidin-1-yl)-5-methylquinazoline-2-carboxylic acid] | 0.316 µM | <4.6 | 
Cc1cccc2ncnc(N3CCCCC3c3cc4nc(N5CCC5)cc(N5CCN(C(=O)OC(C)(C)C)CC5)n4n3)c12 (centres unmarked) [P52, tert-butyl4-(5-(azetidin-1-yl)-2-(1-(5-methylquinazolin-4-yl)piperidin-2-yl)pyrazolo[1,5-a]pyrimidin-7-yl)piperazine-1-carboxylate] | 0.0794 µM | 4.7 | 
Cc1ccc2nc(C)nc(N3CCCC[C@@H]3c3cc4nc(N5CC(O)C5)c(C)cn4n3)c2c1 [P44, (R)-1-(2-(1-(2,6-dimethyl-quinazolin-4-yl)piperidin-2-yl)-6-methylpyrazolo[1,5-a]pyrimidin-5-yl)azetidin-3-ol] | 0.794 µM | 4.2 | 
Cc1cccc2nc(C(=O)NS(C)(=O)=O)nc(N3CCCCC3c3cc4nc(N5CCC5)cc(N5CCOCC5)n4n3)c12 (centres unmarked) [P69, 4-(2-(5-(azetidin-1-yl)-7-morpholinopyrazolo[1,5-a]pyrimidin-2-yl)-piperidin-1-yl)-5-methyl-N-(methylsulfonyl)quinazoline-2-carboxamide] | 0.316 µM | <4 | 
Cc1cccc2nc(NS(C)(=O)=O)nc(N3CCCCC3c3cc4nc(N5CCC5)cc(N5CCOCC5)n4n3)c12 (centres unmarked) [P9, N-(4-(2-(5-(azetidin-1-yl)-7-morpholinopyrazolo[1,5-a]pyrimidin-2-yl)piperidin-1-yl)-5-methylquinazolin-2-yl)methanesulfonamide] | 0.00501 µM | <4.6 | 
Cc1cn2nc(C3CCCCN3c3nc(Cl)nc4cccc(C)c34)cc2nc1N1CC(O)C1 (centres unmarked) [P40, 1-(2-(1-(2-chloro-5-methylquinazolin-4-yl)piperidin-2-yl)-6-methylpyrazolo[1,5-a]pyrimidin-5-yl)azetidin-3-ol] | 0.158 µM | 4.7 | 
